Experimental data taken from patent publication US20260297060A1, “COMPOUNDS FOR THE DEGRADATION OF MUTANT BRAF” (C4 THERAPEUTICS, INC., priority 2023, published 2026).
Like-named read-outs stand apart in the source and are kept apart here.

Target: T1, BRAF V600E (Homo sapiens, UniProt P15056+Q96SW2, V600E)
T1 construct: knock-in of the HiBiT tag to the endogenous BRAF V600E locus; host or cells: A375.10 (A375 clonal line, CRISPR HiBiT knock-in at the endogenous BRAF V600E locus)
Assay: BRAF V600E HiBiT Degradation Assay
Format: cell-based
How it was run: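 Endogenous HiBiT knock-in on BRAF V600E in A375 cells (clone A375.10); 11-point half-log series, top 10 μM, 2, 6 or 24 h at 37° C. Lytic HiBiT luminescence, background-subtracted, normalized to DMSO; 4-parameter fit gives DC50, Emax (residual protein) and IP (inflection point).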

[1] = A375.10 cells, BRAF V600E, 2 hours, inflection point, read-out: HiBiT-Degradation A375.10 BRAF 2 hours IP
[2] = A375.10 cells, BRAF V600E, 2 hours, read-out: HiBiT-Degradation A375.10 BRAF 2 hours DC50
[3] = A375.10 cells, BRAF V600E, 6 hours, inflection point, read-out: HiBiT-Degradation A375.10 BRAF 6 hours IP
[4] = A375.10 cells, BRAF V600E, 6 hours, read-out: HiBiT-Degradation A375.10 BRAF 6 hours DC50
[5] = A375.10 cells, BRAF V600E, 6 hours, residual protein remaining, read-out: HiBiT-Degradation A375.10 BRAF 6 hours Emax
[6] = A375.10 cells, HiBiT, BRAF V600E, 24 hours, read-out: HiBiT-Degradation A375.10 BRAF 24 hours DC50
[7] = A375.10 cells, HiBiT, BRAF V600E, 24 hours, read-out: HiBiT-Degradation A375.10 BRAF 24 hours Emax
[8] = A375.10 cells, HiBiT, BRAF V600E, 24 hours, read-out: HiBiT-Degradation A375.10 BRAF 24 hours IP
[9] = read-out: HiBiT-Degradation A375.10 BRAF 2 hours Emax, A375.10 cells, BRAF V600E, 2 hours, residual protein remaining
[10] = A375.10 cells, BRAF V600E, 2 hours, residual protein remaining, read-out: HiBiT-Degradation A375.10 BRAF 2 hours Emax

T1 sequence (P15056 whole entry V600E): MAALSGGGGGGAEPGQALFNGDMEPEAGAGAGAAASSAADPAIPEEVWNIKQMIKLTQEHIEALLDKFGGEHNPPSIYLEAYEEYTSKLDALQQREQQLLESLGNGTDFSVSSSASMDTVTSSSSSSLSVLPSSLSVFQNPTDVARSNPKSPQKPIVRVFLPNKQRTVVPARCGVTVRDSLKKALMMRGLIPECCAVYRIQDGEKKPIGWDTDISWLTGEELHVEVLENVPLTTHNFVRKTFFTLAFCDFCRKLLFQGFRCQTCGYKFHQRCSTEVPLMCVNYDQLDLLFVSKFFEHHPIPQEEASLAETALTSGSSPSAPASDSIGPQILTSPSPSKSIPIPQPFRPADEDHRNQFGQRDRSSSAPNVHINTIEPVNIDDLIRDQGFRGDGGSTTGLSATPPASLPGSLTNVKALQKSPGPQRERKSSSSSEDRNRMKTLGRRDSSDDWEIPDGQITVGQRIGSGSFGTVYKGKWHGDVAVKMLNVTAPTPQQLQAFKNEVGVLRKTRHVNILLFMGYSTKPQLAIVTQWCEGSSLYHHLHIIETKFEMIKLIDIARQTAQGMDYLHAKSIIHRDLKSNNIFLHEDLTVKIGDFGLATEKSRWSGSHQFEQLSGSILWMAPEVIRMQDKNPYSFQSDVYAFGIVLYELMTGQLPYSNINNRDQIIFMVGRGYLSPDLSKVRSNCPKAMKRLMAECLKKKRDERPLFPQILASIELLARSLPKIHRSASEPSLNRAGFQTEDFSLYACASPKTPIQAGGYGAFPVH
T1 sequence (Q96SW2 whole entry): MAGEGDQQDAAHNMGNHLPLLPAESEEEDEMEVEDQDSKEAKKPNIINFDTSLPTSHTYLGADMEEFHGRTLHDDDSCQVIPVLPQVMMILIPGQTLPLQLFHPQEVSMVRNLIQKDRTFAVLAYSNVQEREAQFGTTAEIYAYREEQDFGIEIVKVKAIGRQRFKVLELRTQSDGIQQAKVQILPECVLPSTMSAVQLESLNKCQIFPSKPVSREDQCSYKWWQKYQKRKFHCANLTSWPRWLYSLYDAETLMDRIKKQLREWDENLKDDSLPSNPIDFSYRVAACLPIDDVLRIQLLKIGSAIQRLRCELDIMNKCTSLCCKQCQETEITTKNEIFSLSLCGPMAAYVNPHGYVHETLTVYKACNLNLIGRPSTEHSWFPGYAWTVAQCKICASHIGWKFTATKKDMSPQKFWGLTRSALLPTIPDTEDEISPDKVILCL
T1 sequence (Q16531 whole entry partner): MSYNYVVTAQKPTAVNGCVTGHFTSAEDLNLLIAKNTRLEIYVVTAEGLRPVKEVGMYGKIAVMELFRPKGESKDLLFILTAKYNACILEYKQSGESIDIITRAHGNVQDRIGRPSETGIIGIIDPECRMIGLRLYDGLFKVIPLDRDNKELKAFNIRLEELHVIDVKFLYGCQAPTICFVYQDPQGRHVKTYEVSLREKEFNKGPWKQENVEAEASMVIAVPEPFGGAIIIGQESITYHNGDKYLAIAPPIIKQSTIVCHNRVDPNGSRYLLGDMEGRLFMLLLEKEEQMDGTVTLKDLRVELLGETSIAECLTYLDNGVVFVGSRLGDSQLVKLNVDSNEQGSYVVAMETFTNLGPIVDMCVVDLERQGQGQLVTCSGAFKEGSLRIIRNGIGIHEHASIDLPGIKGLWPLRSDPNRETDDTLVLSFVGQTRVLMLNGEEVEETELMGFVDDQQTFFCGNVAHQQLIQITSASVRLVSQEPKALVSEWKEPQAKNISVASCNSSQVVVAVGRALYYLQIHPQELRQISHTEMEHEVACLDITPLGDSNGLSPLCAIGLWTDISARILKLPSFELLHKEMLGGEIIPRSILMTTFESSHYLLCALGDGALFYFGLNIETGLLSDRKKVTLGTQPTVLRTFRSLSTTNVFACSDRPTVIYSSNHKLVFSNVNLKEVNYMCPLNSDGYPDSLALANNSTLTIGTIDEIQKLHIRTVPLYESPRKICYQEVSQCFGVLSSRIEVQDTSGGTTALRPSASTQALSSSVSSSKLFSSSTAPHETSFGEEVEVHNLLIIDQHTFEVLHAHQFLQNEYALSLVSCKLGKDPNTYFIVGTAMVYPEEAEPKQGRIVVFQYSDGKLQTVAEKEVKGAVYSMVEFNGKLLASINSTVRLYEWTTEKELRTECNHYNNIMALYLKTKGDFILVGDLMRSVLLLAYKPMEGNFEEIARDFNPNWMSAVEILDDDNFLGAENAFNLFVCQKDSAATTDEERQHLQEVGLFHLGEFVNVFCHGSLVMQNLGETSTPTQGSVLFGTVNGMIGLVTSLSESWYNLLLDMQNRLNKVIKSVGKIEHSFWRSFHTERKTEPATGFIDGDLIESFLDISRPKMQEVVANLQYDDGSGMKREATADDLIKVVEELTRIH

DC50 [1] [nM]	DC50 [2] [nM]	DC50 [3] [nM]	DC50 [4] [nM]	Emax [5] [%]	DC50 [6] [nM]	Emax [7] [%]	DC50 [8] [nM]	Emax [9] [%]	Emax [10] [%]	HiBiT-Degradation A375.10 BRAF 2 hours IP (A375.10 cells, BRAF V600E, 2 hours, inflection point)	HiBiT-Degradation A375.10 BRAF 6 hours IP (A375.10 cells, BRAF V600E, 6 hours, inflection point)	HiBiT-Degradation A375.10 BRAF 24 hours IP (A375.10 cells, HiBiT, BRAF V600E, 24 hours)	DC50 (read-out: HiBiT-Degradation A375.10 BRAF 2 hours DC50, A375.10 cells, BRAF V600E, 2 hours) [nM]	DC50 (read-out: HiBiT-Degradation A375.10 BRAF 6 hours DC50, A375.10 cells, BRAF V600E, 6 hours) [nM]	DC50 (read-out: HiBiT-Degradation A375.10 BRAF 24 hours DC50, A375.10 cells, HiBiT, BRAF V600E, 24 hours) [nM]	HiBiT-Degradation A375.10 BRAF 2 hours Emax	Compound
< 1000	< 1000	< 1000	< 1000	< 50	< 1000	< 50	< 1000	< 50									CCN(C)S(=O)(=O)Nc1ccc(F)c(Oc2ccc3ncc([C@@H]4COC5(CCN(C6CCC(c7cc8c(cc7F)c(N7CCC(=O)NC7=O)nn8C)CC6)CC5)C4)nc3c2)c1C#N (single isomer, unassigned) [Compound 54]
< 1000	< 1000	< 1000	< 1000	< 50	< 1000	< 50	< 1000	< 50									CCN(C)S(=O)(=O)Nc1ccc(F)c(Oc2ccc3ncc([C@H]4COC5(CCN(C6CCC(c7ccc(NC8CCC(=O)NC8=O)cc7F)CC6)CC5)C4)nc3c2)c1C#N (single isomer, unassigned) [Compound 58]
< 1000	< 1000	< 1000	< 1000	< 50	< 1000	< 50	< 1000	< 50									CCN(C)S(=O)(=O)Nc1ccc(F)c(Oc2ccc3ncc([C@@H]4COC5(CCN(C6CCC(c7ccc(NC8CCC(=O)NC8=O)cc7F)CC6)CC5)C4)nc3c2)c1C#N (single isomer, unassigned) [Compound 60]
< 1000	< 1000	< 1000	< 1000	< 50	< 1000	< 50	< 1000		< 50								CCN(C)S(=O)(=O)Nc1ccc(F)c(Oc2ccc3ncn([C@H]4COC5(CCN(C6CC(c7ccc(NC8CCC(=O)NC8=O)cc7F)C6)CC5)C4)c(=O)c3c2)c1C#N (single isomer, unassigned) [Compound 62]
< 1000	< 1000	< 1000	< 1000	< 50	< 1000	< 50	< 1000		< 50								CCN(C)S(=O)(=O)Nc1ccc(F)c(Nc2ccc3ncn([C@H]4COC5(CCN(C6CCC(c7cc8c(cc7F)c(N7CCC(=O)NC7=O)nn8C)CC6)CC5)C4)c(=O)c3c2)c1C#N (single isomer, unassigned) [Compound 64]
< 1000	< 1000	< 1000	< 1000	< 50	< 1000	< 50	< 1000		< 50								CCN(C)S(=O)(=O)Nc1ccc(F)c(Nc2ccc3ncn([C@H]4COC5(CCN(C6CCC(c7cc8c(cc7F)c(N7CCC(=O)NC7=O)nn8C)CC6)CC5)C4)c(=O)c3c2F)c1C#N (single isomer, unassigned) [Compound 67]
				< 50		< 50			< 50	*** (<=1 μM)	*** (<=1 μM)	*** (<=1 μM)	< 1000	< 1000	< 1000		CCN(C)S(=O)(=O)Nc1ccc(F)c(Oc2ccc3ncn([C@H]4COC5(CCN(C6CC(c7cc8c(cc7F)c(N7CCC(=O)NC7=O)nn8C)C6)CC5)C4)c(=O)c3c2)c1C#N (single isomer, unassigned) [Compound 70]
< 1000	< 1000	< 1000	< 1000	< 50	< 1000	< 50	< 1000		< 50								CCN(C)S(=O)(=O)Nc1ccc(F)c(Oc2ccc3ncn([C@H]4COC5(CCN(C6CCC(c7cc8c(cc7F)c(N7CCC(=O)NC7=O)nn8C)CC6)CC5)C4)c(=O)c3c2)c1F (single isomer, unassigned) [Compound 71]
< 1000	< 1000	< 1000	< 1000	< 50	< 1000	< 50	< 1000		< 50								CN(CCO)S(=O)(=O)Nc1ccc(F)c(Oc2ccc3ncn([C@H]4COC5(CCN(C6CCC(c7cc8c(cc7F)c(N7CCC(=O)NC7=O)nn8C)CC6)CC5)C4)c(=O)c3c2)c1C#N (single isomer, unassigned) [Compound 73]
< 1000	< 1000	< 1000	< 1000	< 50	< 1000	< 50	< 1000		< 50								CN(CCO)S(=O)(=O)Nc1ccc(F)c(Oc2ccc3ncn([C@H]4COC5(CCN(C6CCC(c7ccc(NC8CCC(=O)NC8=O)cc7F)CC6)CC5)C4)c(=O)c3c2)c1C#N (single isomer, unassigned) [Compound 76]
< 1000	< 1000	< 1000	< 1000	< 50	< 1000	< 50	< 1000		< 50								CCN(C)S(=O)(=O)Nc1ccc(F)c(Oc2ccc3ncn([C@H]4COC5(CCN(C6CCC(c7ccc(NC8CCC(=O)NC8=O)cc7F)CC6)CC5)C4)c(=O)c3c2)c1F (single isomer, unassigned) [Compound 78]
< 1000	< 1000	< 1000	< 1000	< 50	< 1000	< 50	< 1000		< 50								CN(CCO)S(=O)(=O)Nc1ccc(F)c(Oc2ccc3ncn(C4CC5(CCN(C6CCC(c7ccc(NC8CCC(=O)NC8=O)cc7F)CC6)CC5)C4)c(=O)c3c2)c1C#N (single isomer, unassigned) [Compound 79, 6-[2-cyano-6-fluoro-3-[[2-hydroxyethyl(methyl)sulfamoyl]amino]phenoxy]-3-[7-[4-[4-[(2,6-dioxo-3-piperidyl)amino]-2-fluoro-phenyl]cyclohexyl]-7-azaspiro[3.5]nonan-2-yl]-4-oxo-quinazoline]
< 1000	< 1000	< 1000	< 1000	< 50	< 1000	< 50	< 1000		50 to 90								CN(CCO)S(=O)(=O)Nc1ccc(F)c(Oc2ccc3ncn(C4CC5(CCN(C6CCC(c7cc8c(cc7F)c(N7CCC(=O)NC7=O)nn8C)CC6)CC5)C4)c(=O)c3c2)c1C#N (single isomer, unassigned) [Compound 81, 6-[2-cyano-6-fluoro-3-[[2-hydroxyethyl(methyl)sulfamoyl]amino]phenoxy]-3-[7-[4-[3-(2,4-dioxohexahydropyrimidin-1-yl)-5-fluoro-1-methyl-indazol-6-yl]cyclohexyl]-7-azaspiro[3.5]nonan-2-yl]-4-oxo-quinazoline]
< 1000	< 1000	< 1000	< 1000	< 50	< 1000	< 50	< 1000	< 50									CCN(C)S(=O)(=O)Nc1ccc(F)c(Oc2ccc3ncn(C4CC5(CCN(C6CCC(c7cc8c(cc7F)c(N7CCC(=O)NC7=O)nn8C)CC6F)CC5)C4)c(=O)c3c2)c1C#N (single isomer, unassigned) [Compound 83, 6-[2-cyano-3-[[ethyl(methyl)sulfamoyl]amino]-6-fluoro-phenoxy]-3-[7-[4-[3-(2,4-dioxohexahydropyrimidin-1-yl)-5-fluoro-1-methyl-indazol-6-yl]-2-fluoro-cyclohexyl]-7-azaspiro[3.5]nonan-2-yl]-4-oxo-quinazoline]
< 1000	< 1000															*** (<=50%)	CCN(C)S(=O)(=O)Nc1ccc(F)c(Oc2ccc3ncn(C4CC5(CCN(C6CCC(c7cc8c(cc7F)c(N7CCC(=O)NC7=O)nn8C)CC6F)CC5)C4)c(=O)c3c2)c1C#N (single isomer, unassigned) [Compound 85]
< 1000	< 1000															*** (<=50%)	CCN(C)S(=O)(=O)Nc1ccc(F)c(Oc2ccc3ncn(C4CC5(CCN(C6CCC(c7cc8c(cc7F)c(N7CCC(=O)NC7=O)nn8C)CC6F)CC5)C4)c(=O)c3c2)c1C#N (single isomer, unassigned) [Compound 86]
